Data from patent US5326776A, “Angiotensin II receptor antagonists” (Abbott Laboratories, priority 1993, dated 1994).

system: angiotensin receptor; test: not given; conditions: in vivo; cited from earlier work

SMILES | blood pressure after intravenous administration
CNCC(=O)N[C@@H](CCCN=C(N)N)C(=O)N[C@H](C(=O)N[C@@H](Cc1ccc(O)cc1)C(=O)N[C@H](C(=O)N[C@@H](Cc1cnc[nH]1)C(=O)N1CCC[C@H]1C(=O)N[C@@H](C)C(=O)O)C(C)C)C(C)C [saralasin, [Sar^1,Ala^8] angiotensin II] | initial increase in blood pressure after intravenous administration

molecular target: T1, angiotensin II receptor (Oryctolagus cuniculus, UniProt P34976); test: Antagonism of contraction of rabbit aorta (angiotensin II functional assay, isolated rabbit aorta, pA2); set-up: species or system rabbit (female New Zealand White); conditions: angiotensin II as agonist, 30 minutes incubation with antagonist, Schild analysis, negative logarithm of [A]2
T1 construct: Main abdominal aortas were removed and placed in Krebs-Henseleit buffer at room temperature; from tissue; host or cells: main abdominal aorta rings (3 mm) of female New Zealand White rabbits
T1 sequence (P34976 1-359): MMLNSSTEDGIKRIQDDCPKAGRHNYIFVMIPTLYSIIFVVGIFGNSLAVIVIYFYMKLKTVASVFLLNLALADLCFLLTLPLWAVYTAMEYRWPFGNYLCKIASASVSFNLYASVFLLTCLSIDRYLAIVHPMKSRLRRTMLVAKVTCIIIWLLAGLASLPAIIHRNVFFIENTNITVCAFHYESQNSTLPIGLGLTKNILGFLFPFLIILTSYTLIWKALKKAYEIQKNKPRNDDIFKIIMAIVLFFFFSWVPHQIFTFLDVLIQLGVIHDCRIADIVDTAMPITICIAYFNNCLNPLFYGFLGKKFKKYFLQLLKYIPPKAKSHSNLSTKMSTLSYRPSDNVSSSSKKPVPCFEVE
From the text: ANGIOTENSIN II FUNCTIONAL ASSAY: Antagonism of Contraction of Rabbit Aorta
The protocol reported by A. T Chiu and P. Timmermans (P. C. Wong, et al. Hypertension, 13, 489-497 (1989)) was followed with a few modifications. Female New Zealand White rabbits weighing 2-5 kg were sedated with carbon dioxide and then sacrificed. Main abdominal aortas were removed and placed in Krebs-Henseleit buffer at room temperature. […]
______________________________________
Buffer Component mM Concentration
potassium dihydrogen phosphate
sodium bicarbonate 20.00
EDTA* disodium calcium salt
*EDTA = ethylenediamine tetraacetic acid
The buffer contained no cocaine, propanolol or steroid.
The pH of the buffer was 7.40 at 37° C. when saturated with 5%
carbon dioxide/95% oxygen.
The tissues were cleaned of extraneous connective tissue, cut into 3 mm rings, and suspended within a 10 mL tissue bath. All dilutions of peptide preparations were made with 0.3% aqueous BSA. The tissues were primed with 55 mM potassium chloride. Tissues were pre-loaded with 1 g of tension. Tension was recorded on a model 7 Grass polygraph using FT03 transducers. At the end of the equilibrium period, a control cumulative concentration-contractile response curve for angiotensin II (A II: 1×10^-10 -10^-8 M) was obtained. The tissue was washed several times until the baseline was reached. Forty five minutes later, test compound (antagonist) was added and the tissue was incubated for 30 minutes. The concentration-response curve for A II was then repeated in the presence of the test compound. One dose of antagonist was tested per tissue only. For single dose shift experiments a dose of 1 mM of test compound was used, for a full pA2 experiment multiple doses were used depending upon the potency of the antagonist.
All responses to the control agonist were calculated as a percentage of the maximum response. These points in duplicate were plotted and analyzed according to standard Schild analysis (H. O. Schild, British J Pharmacology and Chemotherapy, 2, 189-206 (1947). The pA2 values calculated for the compounds of the invention are shown in Table 6. The pA2 value is the negative logarithm of the [A]2 value. [A]2 is the concentration of antagonist which necessitates doubling the agonist concentration in order to achieve the agonist effect which was measured in the absence of antagonist.
The pA2 value, therefore, is a measure of the effectiveness of the compound as an antagonist.

SMILES | Kb [nM]
CCCCN(Cc1ccc(-c2ccccc2-c2nnn[nH]2)cc1)c1nc(SC)n(C)c1C(=O)OCC [Example 1, Ethyl 4-{N-butyl-N-[(2'-[1H-tetrazol-5-yl]biphenyl-4-yl)methyl]amino}-1-methyl-2-(methylthio)imidazole-5-carboxylate] | 105
CCCCN(Cc1ccc(-c2ccccc2-c2nn[nH]n2)cc1)c1scnc1C(=O)O [Example 3, 5-{N-Butyl-N-[(2'-[1H-tetrazol-5-yl]biphenyl-4-yl)methyl]amino}thiazole-4-carboxylic acid] | 6.31
CCCCN(Cc1ccc(-c2ccccc2-c2nn[nH]n2)cc1)c1ncn(CC)c1C(=O)OC(C)(C)C [Example 5, tert-Butyl 4-{N-butyl-N-[(2'-[1H-tetrazol-5-yl]biphenyl-4-yl)methyl]amino}-1-(N-ethyl)imidazole-5-carboxylate] | 87.1
CCCCN(Cc1ccc(-c2ccccc2-c2nn[nH]n2)cc1)c1cn(CC)cn1 [Example 6, 4-{N-Butyl-N-[(2'-[1H-tetrazol-5-yl]biphenyl-4-yl)methyl]amino}-1-(N-ethyl)imidazole] | 7.59
CCCCN(Cc1ccc(-c2ccccc2-c2nnn[nH]2)cc1)c1snnc1C(=O)OCC [Example 9, Ethyl 5-{N-butyl-N-[(2'-[1H-tetrazol-5-yl]biphenyl-4-yl)methyl]amino}-1,2,3-thiadiazole-4-carboxylate] | 16.6
CCCCN(Cc1ccc(-c2ccccc2-c2nn[nH]n2)cc1)c1snnc1C(=O)O [Example 10, 5-[N-Butyl-N-[[2'-(1H-tetrazol-5-yl)biphenyl-4-yl]methyl]amino]-1,2,3-thiadiazole-4-carboxylic acid] | 4.37
CCCCN(Cc1ccc(-c2ccccc2-c2nnn[nH]2)cc1)c1nnc(C(=O)OCC)s1 [Example 11, Ethyl 2-{N-Butyl-N-[(2'-[1H-tetrazol-5-yl]biphenyl-4-yl)methyl]amino}-1,3,4-thiadiazole-5-carboxylate] | 2.95
CCCCN(Cc1ccc(-c2ccccc2-c2nnn[nH]2)cc1)c1nncs1 [Example 12, 2-{N-Butyl-N-[(2'-[1H-tetrazol-5-yl]biphenyl-4-yl)methyl]amino}-1,3,4-thiadiazole] | 20
CCCN(Cc1ccc(-c2ccccc2-c2nn[nH]n2)cc1)c1nn(C)cc1C(=O)O [Example 14, 1-Methyl-3-{N-propyl-N-[(2'-[1H-tetrazol-5-yl]biphenyl-4-yl)methyl]amino}pyrazole-4-carboxylic acid] | 11.5
CCCCN(Cc1ccc(-c2ccccc2-c2nn[nH]n2)cc1)c1ncc(C(=O)O)s1 [Example 27, 2-{N-Butyl-N-[(2'-[1H-tetrazol-5-yl]biphenyl-4-yl)methyl]amino}thiazole-5-carboxylic acid] | 1.66
CCCN(Cc1ccc(-c2ccccc2-c2nn[nH]n2)cc1)c1ncc(C(=O)O)s1 [Example 28, 2-{N-Propyl-N-[(2'-[1H-tetrazol-5-yl]biphenyl-4-yl)methyl]amino}thiazole-5-carboxylic acid] | 13.5
CCCN(Cc1ccc(-c2ccccc2-c2nn[nH]n2)cc1)c1nc(C)c(C(=O)O)s1 [Example 29, 4-Methyl-2-{N-propyl-N-[(2'-[1H-tetrazol-5-yl]biphenyl-4-yl)methyl]amino}thiazole-5-carboxylic acid] | 2.34
CCCN(Cc1ccc(-c2ccccc2-c2nn[nH]n2)cc1)c1nc(C(F)(F)F)c(C(=O)O)s1 [Example 30, 2-{N-Propyl-N-[(2'-[1H-tetrazol-5-yl]biphenyl-4-yl)methyl]amino}thiazole-4-trifluoromethyl-5-carboxylic acid] | 27.5
CCCc1nc(N(CCC)Cc2ccc(-c3ccccc3-c3nn[nH]n3)cc2)sc1C(=O)O [Example 31, 2-{N-Propyl-N-[(2'-[1H-tetrazol-5-yl]biphenyl-4-yl)methyl]amino}thiazole-4-propyl-5-carboxylic acid] | 37.2

system: angiotensin II; test: not given; conditions: background statement; cited from earlier work

SMILES | antagonist of the actions of angiotensin II
CNCC(=O)N[C@@H](CCCN=C(N)N)C(=O)N[C@H](C(=O)N[C@@H](Cc1ccc(O)cc1)C(=O)N[C@H](C(=O)N[C@@H](Cc1cnc[nH]1)C(=O)N1CCC[C@H]1C(=O)N[C@@H](C)C(=O)O)C(C)C)C(C)C [saralasin, [Sar^1,Ala^8] angiotensin II] | potent antagonist of the actions of angiotensin II

system: not given; test: not given; conditions: peptide; cited from earlier work

SMILES | oral bioavailability
CNCC(=O)N[C@@H](CCCN=C(N)N)C(=O)N[C@H](C(=O)N[C@@H](Cc1ccc(O)cc1)C(=O)N[C@H](C(=O)N[C@@H](Cc1cnc[nH]1)C(=O)N1CCC[C@H]1C(=O)N[C@@H](C)C(=O)O)C(C)C)C(C)C [saralasin, [Sar^1,Ala^8] angiotensin II] | very poor oral bioavailability
